Assay [1] deals with T1, tau46 (fibrils) (Homo sapiens, UniProt P10636).
T1 construct: made in house; host or cells: E. coli
The experiment in a line: Competition binding assay, protocol 3a, reference ligand [3H]-compound 1, tau46 fibrils. The note with it: Experiment B, reference ligand [3H]-compound 1 (1 nM). On the procedure:
Alpha-synuclein and tau46 were purified from E. coli according to established protocols (Nuscher B, et al., J. Biol. Chem., 2004; 279(21):21966-75), Aβ1-42 was obtained from rPeptide, Watkinsville, Ga., USA. Fibrils were prepared by aggregation of recombinant protein via constant agitation. In detail, 70 μM of alpha-synuclein mixed with 100 mM NaCl in 50 mM Tris, pH 7.0+0.02% NaN3 were incubated at 1,400 rpm, 37° C. for 96 h. 10 μM of tau46 were incubated with 0.03 mg/ml heparin in 50 mM Tris, pH=7.0 at 1,000 rpm, 37° C. for 72 h. Aβ1-42 was solved in 20 mM NaPi, pH=8.0+0.2 mM EDTA+0.02% NaN3 (Deeg A A, et al., Biochim. Biophys. Acta, 2015; 1850(9): 1884-90; Goedert M, et al. Nature, 1996; 383(6600): 550-3).
A fixed concentration of sonicated human recombinant αSYN (200 nM/well) or tau46 (208 nM/well) fibrils diluted in phosphate buffered saline (PBS) were incubated in low binding plates (96 well micro test plate, Ratiolab GmbH, Dreieich, Germany) together with 1 nM [^3H]-compound 1 and 1:4 serial dilutions of the cold compound of interest starting from 1 μM diluted in 50 mM Tris-base, 10% EtOH, 0.05% Tween20, pH 7.4. For the calculation of Ki values the KD value of compound 1 toward sonicated human recombinant αSYN fibrils was set to 3 nM.
Assay plates were incubated under agitation at 37° C. for 2 h covered by plastic foil (Resealable tape, PerkinElmer, Waltham, Mass., USA). Prior to harvesting, a filter (Printed filtermat B, PerkinElmer, Waltham, Mass., USA) was incubated with 5 mg/mL polyethylenimine (PEI, Poly(ethyleneimine) solution, Sigma Aldrich Chemie GmbH, Taufkirchen, Germany) at 4° C. for 30 min. After incubation, bound and free ligands were separated by vacuum filtration using a harvester (Filtermate harvester, PerkinElmer, Waltham, Mass., USA). The filter was washed three times with buffer cooled to 4° C. and subsequently dried in the microwave for 2 min at medium power. The filter was sealed in a plastic bag (Sample bag for MicroBeta®, PerkinElmer, Waltham, Mass., USA) together with added scintillator (BETAPLATE SCINT, PerkinElmer, Waltham, Mass., USA). Accumulation of tritium was counted in a liquid scintillation counter (Wallac MicroBeta® TriLux, 1450 LSC & Luminescence Counter, PerkinElmer, Waltham, Mass., USA) immediately. Radioactivity was plotted against the increasing tritium-labeled compound or cold compound concentrations. Data points were fitted using nonlinear regression analysis in GraphPad Prism (GraphPad Software, Inc., Version 7.03, La Jolla, Calif., USA).
The fibril competition assay provides Ki values. Ki is a quantitative measure that represents the concentration of the non-radioactive tested compound (competitor ligand) required to replace 50% of a reference compound, in this case [H]-compound 1 (1 nM) or [H]-compound 2 (1 nM), which is bound to the target structures (1 nM), in our case recombinant alpha-synuclein and tau46 fibrils. This assay is suitable for a screening of non-radioactive ligands.

Assay [2] has as its target T2, alpha-synuclein (fibrils) (Homo sapiens, UniProt P37840).
T2 construct: made in house; host or cells: E. coli
Description: Competition binding assay, protocol 3a, reference ligand [3H]-compound 1, alpha-synuclein fibrils. The note with it: reference ligand [3H]-compound 1 (1 nM).

Assay [3] has as its target T3, aggregated alpha-synuclein (Homo sapiens, UniProt P37840).
T3 construct: made in house; host or cells: E. coli
Description: Autoradiography using human brain tissue (dementia with Lewy bodies). Format: binding. As for the experimental part:
Autoradiography was performed on histological slices of frozen brain tissue using tritiated compound 1 and brain tissue derived from the cingulate gyrus of a patient with dementia with Lewy bodies.

Where [4] appears, read: Experiment B, read-out: Ki (nM) alpha-synuclein (sonicated fibrils).

SMILES strings stand for the structures. Where “and” joins values, the source holds several entries; their conditions need not be identical. Identical values can stand only once. Like-named read-outs stand apart in the source and are kept apart here.

T1 sequence (P10636 1-412 isoform P10636-7): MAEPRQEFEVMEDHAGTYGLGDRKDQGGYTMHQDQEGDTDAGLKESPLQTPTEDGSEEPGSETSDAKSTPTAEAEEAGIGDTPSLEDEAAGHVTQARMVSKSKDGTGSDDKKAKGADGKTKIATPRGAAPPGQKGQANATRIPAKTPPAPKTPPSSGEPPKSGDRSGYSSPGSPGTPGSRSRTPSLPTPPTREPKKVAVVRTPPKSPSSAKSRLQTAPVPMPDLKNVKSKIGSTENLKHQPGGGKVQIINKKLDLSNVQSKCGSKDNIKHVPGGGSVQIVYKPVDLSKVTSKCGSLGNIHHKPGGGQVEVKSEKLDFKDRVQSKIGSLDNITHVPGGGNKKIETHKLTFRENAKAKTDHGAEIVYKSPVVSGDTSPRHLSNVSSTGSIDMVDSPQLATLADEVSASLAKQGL

With `CNc1ccc(-c2cc(-c3ccnc(Br)c3)[nH]n2)cc1` [Compound 2, 4-[5-(2-bromopyridin-4-yl)-1H-pyrazol-3-yl]-N-methylaniline], the Ki (commonly a measure of affinity in units of concentration, obtained from inhibition or displacement) in assay [1] is 9 nM; in assay [2] (setting [4]), less than 2 nM.
`Fc1cc(-c2cc(-c3ccc4c(c3)OCO4)n[nH]2)ccn1` [Compound 12, 4-[3-(1,3-benzodioxol-5-yl)-1H-pyrazol-5-yl]-2-fluoropyridine]: the Ki in assay [2] (Experiment A, read-out: Ki (nM) alpha-synuclein (fibrils)) was 47 nM and 42 nM; in assay [2] (setting [4]), 9 nM.
For the molecule `CN(C)c1ccc(-c2cc(-c3ccnc(Br)c3)[nH]n2)cc1` [Compound 1, 4-[3-(4-dimethylamino-phenyl)-1H-pyrazol-5-yl]-2-bromopyridine], the Autoradiography binding pattern entry in assay [3] ([3H]-compound 1 at 3 nM, cingulate gyrus, patient with dementia with Lewy bodies) is given as “preferential binding to the gray matter”. In addition, in assay [3] (specific binding blocked by excess of non-tritiated compound 1), the “Unspecific binding to brain tissue” value was “no to very low unspecific binding”.
